According to ChEMBL document CHEMBL1148960, “Furanolabdane diterpenes from Hypoestes purpurea” (J Nat Prod, 2004):

Test system: KB
Assay: Cytotoxicity against human KB cells after 24 hrs by MTT assay
Type: functional, cell-based

Row | Structure (SMILES) | IC50
1 | CC1=C[C@H]2OC(=O)[C@@]3(C)CCC[C@@](C)([C@@H]23)[C@H]1CC(=O)c1ccoc1 [HYPOPURIN A] | 9.4 µM
2 | CC1=C[C@H]2OC3OC(=O)[C@@]4(C)CCC[C@@]3([C@@H]24)[C@H]1CC(=O)c1ccoc1 [HYPOPURIN B] | > 100 µM
3 | C[C@@]12C=C[C@@H]3[C@]4(CCC[C@]3(C)C(=O)OC4O1)[C@H]2CC(=O)c1ccoc1 (some centres undefined) [HYPOPURIN C] | > 100 µM
4 | CC1=C[C@H]2OC(=O)[C@@]3(C)CCC[C@@](C)([C@@H]23)[C@H]1CCC1=CCOC1=O [HYPOPURIN D] | > 100 µM
